Assay results from US20070183995A1, “Compounds useful as agonists of A2A adenosine receptors, cosmetic compositions with A2A agonists and a method for using the same” (Conopco, Inc., d/b/a Unilever, priority 2006, published 2007).

Tested on: Melanoderm cultures (melanogenesis)
Assay: Melanoderm human skin equivalent lightening test (Hunter Lab L value)
Type: cell-based
Details: for Average L Value / L Value Range: 3 micromolar in media, dosed 10 times in 3 weeks, Hunter Lab L value, Minolta CR-10 chromameter; for Average L Value: averaged; for L Value Range: triplicate; for ΔL: difference in average Hunter Lab L value, treated vs untreated control cultures, 3 micromolar, 3 weeks
From the text: As used herein, ΔL is defined to mean the difference in Hunter Lab L values when comparing three, three (3) week old Mattek Melanoderm cultures that have not been treated with a composition comprising an agonist of A2A receptors to three, three (3) week old Mattek melanoderm cultures that have been treated with a composition comprising an agonist of A2A receptors wherein treated means: • (a) placing the melanoderm culture within a six (6) well tissue culture dish and set about 0.3 cm off of the tissue culture dish; • (b) subjecting the melanoderm culture to a 3 micromolar composition having an agonist of A2A adenosine receptors, the composition being one prepared from a 10 millimolar solution of A2A agonist and carrier (e.g., dimethyl sulfoxide) having been diluted with Dulbecco's Modified Eagle Media; and • (c) comparing the treated and untreated cultures by obtaining average L values for each with a Minolta CR-10 chromameter.
Commercially available human skin equivalents (Melanoderm from Mattek) were obtained for testing the impact of agonists of A2A adenosine receptors on melanogenesis. Solutions having a final concentration of three (3) micromolar were prepared from a 10 millimolar dimethyl sulfoxide stock solution and dosed ten (10) times in a three (3) week period into the media of the melanoderm cultures. The media consisted of commercially available basal Dulbecco's Modified Eagles media, prepared and treated in the manner set forth in the manufacture's instructions. For long term maintenance of the Melanoderms, the basal media was supplemented with bFGF and alpha MSH to stimulate melanocyte growth and melanogenesis. Each treatment condition was done in triplicate and three (3) sets were made for each treatment, as well as for a control (culture not treated with the agonist). The cultures were maintained at a temperature of about 37° C. and stored in a humidified, 5% CO2 incubator during the dosing period, but removed while being dosed.
After a three (3) week period, Hunter lab L value readings were taken for each condition (with a.Minolta CR-10 chromameter) and then averaged.

Row | Structure (SMILES) | Average L Value | L Value Range | ΔL
1 | CCNC(=O)[C@H]1O[C@@H](n2cnc3c(N)nc(NCCc4ccc(CCC(=O)O)cc4)nc32)[C@H](O)[C@@H]1O [Agonist 1, 2-para(2-carboxyethyl)phenethylamino-5′-N-ethyl carboxamido adenosine] | 31.9 | 30.3-33.3 | 1.7
2 | Nc1nc(Nc2ccccc2)nc2c1ncn2[C@@H]1O[C@H](CO)[C@@H](O)[C@H]1O [Agonist 2, phenylaminoadenosine] | 43.8 | 43.2-44.2 | 5.2
